Measurements published in patent US6156700A, “3-(1,2-Benzisothiazol- and isoxazol-5-yl)-2,4(1H,3H)-pyrimidinedione or thione and 3-(1,2-benzisothiazol- and isoxazol-5-yl)-4(3H)-pyrimidinone or thione herbicidal agents” (American Cyanmid Company, priority 1998, dated 2000).

Columns and labels:
Design in all cases: scale not given here
[1] = tested on: ECHORC Watergrass (Calif.); assay: Postemergence weed control, flooded paddy (Table IV); type: in vivo, Echinochloa oryzoides
Text: (§1) Plastic containers containing weeds which are 3 to 5 cm tall and rice seedlings at the 1.5 to 2.5 leaf stage are flooded with water. The water is maintained at 1.5 to 3 cm above the soil surface for the duration of the experiment. Test compounds are applied as aqueous/acetone mixtures 50/50 v/v directly into the flood water to provide the equivalent of about 0.0313 to 0.500 kg/ha of active ingredient. The treated containers are placed on greenhouse benches and cared for in accordance with conventional greenhouse procedures. Three to four weeks after treatment, the test is terminated and each container is examined and herbicidal effect rated according to the rating system provided in Example 185. The compounds evaluated are reported by compound number given in Example 185.

[2] = tested on: CYPIR Rice Flatsedge; assay: as above; type: in vivo, Cyperus iria
Text: as §1

[3] = tested on: CYPSE Flatsedge; assay: as above; type: in vivo, Cyperus serotinus
Text: as §1

[4] = tested on: MOOVA Monochoria; assay: as above; type: in vivo, Monochoria vaginalis
Text: as §1

[5] = tested on: SAGPY Arrowhead (Pygmaea); assay: as above; type: in vivo, Sagittaria pygmaea
Text: as §1

[6] = tested on: ORYSAT Rice, Tebonnet; assay: Rice tolerance, flooded paddy (Table IV); type: in vivo, Oryza sativa; settings: crop tolerance
Text: as §1

| Compound | herbicidal effect rating ([1]; 0.1250 kg/ha) | herbicidal effect rating ([1]; 0.2500 kg/ha) | herbicidal effect rating ([2]; 0.1250 kg/ha) | herbicidal effect rating ([2]; 0.2500 kg/ha) | herbicidal effect rating ([3]; 0.1250 kg/ha) | herbicidal effect rating ([3]; 0.2500 kg/ha) | herbicidal effect rating ([4]; 0.1250 kg/ha) | herbicidal effect rating ([4]; 0.2500 kg/ha) | herbicidal effect rating ([5]; 0.1250 kg/ha) | herbicidal effect rating ([5]; 0.2500 kg/ha) | herbicidal effect rating ([6]; 0.1250 kg/ha) | herbicidal effect rating ([6]; 0.2500 kg/ha) |
| --- | --- | --- | --- | --- | --- | --- | --- | --- | --- | --- | --- | --- |
| COc1cc(C)c(I)cc1-c1nsc2ccc(-n3c(=O)cc(C(F)(F)F)n(C)c3=O)cc12 [Compound 429, 2,4(1H,3H)-Pyrimidinedione,3-[3-(5-iodo-2-methoxy-p-tolyl)-1,2-benzisothiazol-5-yl]-1-methyl-6-(trifluoromethyl)-] | 6.0 | 9.0 | 7.0 | 9.0 | 0.0 | 0.0 | 7.0 | 7.0 | 0.0 | 0.0 | 2.0 | 2.0 |
| COC(=O)COc1ccc(C)cc1-c1noc2ccc(-n3c(=O)cc(C(F)(F)F)n(C)c3=O)c(Cl)c12 [Compound 261, Acetic acid,{{2-{4-chloro-5-[3,6-dihydro-3-methyl-2,6-dioxo-4-(trifluoromethyl)-1(2H)-pyrimidinyl]-1,2-benzisoxazol-3-yl}-p-tolyl}oxy}-, methyl ester] | 0.0 | 0.0 | 6.0 | 6.0 | 0.0 | 0.0 | 9.0 | 9.0 | 0.0 | 0.0 | 0.0 | 0.0 |
| CC(C)S(=O)(=O)NC(=O)c1nsc2ccc(-n3c(=O)cc(C(F)(F)F)n(C)c3=O)cc12 [Compound 362, 1,2-Benzisothiazole-3-carboxamide,5-[3,6-dihydro-3-methyl-2,6-dioxo-4-(trifluoromethyl)-1(2H)-pyrimidinyl]-N-(isopropylsulfonyl)-] | 7.0 | 9.0 | 8.0 | 4.0 | 9.0 | 9.0 | 9.0 | 9.0 | 4.0 | 8.0 | 3.0 | 6.0 |
| COCc1nsc2cc(F)c(-n3c(=O)cc(C(F)(F)F)n(C)c3=O)cc12 [Compound 378, 2,4(1H,3H)-Pyrimidinedione, 3-[6-fluoro-3-(methoxymethyl)-1,2-benzisothiazol-5-yl]-1-methyl-6-(trifluoromethyl)-] | 9.0 |  | 9.0 |  | 9.0 |  | 9.0 |  | 9.0 |  | 9.0 |  |
| COC(=O)COc1ccc(C)cc1-c1noc2cc(F)c(-n3c(=O)cc(C(F)(F)F)n(C)c3=O)cc12 [Compound 359, Acetic acid, {{2-{5-[3,6-dihydro-3-methyl-2,6-dioxo-4-(trifluoromethyl)-1(2H)-pyrimidinyl]-6-fluoro-1,2-benzisoxazol-3-yl}-p-tolyl}oxy}-, methyl ester] | 6.0 |  | 9.0 |  | 0.0 |  | 9.0 |  | 0.0 |  | 4.0 |  |
| COc1ccc(I)cc1-c1nsc2ccc(-n3c(=O)cc(C(F)(F)F)n(C)c3=O)cc12 [Compound 448, 2,4(1H,3H)-Pyrimidinedione, 3-[3-(5-iodo-2-methoxyphenyl)-1,2-benzisothiazol-5-yl]-1-methyl-6-(trifluoromethyl)-] | 1.0 | 2.0 | 7.0 | 9.0 | 0.0 | 0.0 | 1.0 | 4.0 | 0.0 | 0.0 | 1.0 | 2.0 |
| CCOc1cccc(-c2nsc3ccc(-n4c(=O)cc(C(F)(F)F)n(C)c4=O)cc23)c1 [Compound 327, 2,4(1H,3H)-Pyrimidinedione, 3-[3-(m-ethoxyphenyl)-1,2-benzisothiazol-5-yl]-1-methyl-6-(trifluoromethyl)-] | 9.0 | 9.0 | 9.0 | 9.0 | 0.0 | 2.0 | 9.0 | 9.0 | 4.0 | 4.0 | 5.0 | 4.0 |
| COc1c(-c2nsc3ccc(-n4c(=O)cc(C(F)(F)F)n(C)c4=O)cc23)ccc(C)c1C [Compound 267, 2,4(1H,3H)-Pyrimidinedione,3-[3-(2-methoxy-3,4-xylyl)-1,2-benzisothiazol-5-yl]-1-methyl-6-(trifluoromethyl)-] | 9.0 | 9.0 | 9.0 | 9.0 | 0.0 | 0.0 | 9.0 | 9.0 | 0.0 | 0.0 | 6.0 | 7.0 |
| CCCCC(=O)c1nsc2ccc(-n3c(=O)cc(C(F)(F)F)n(C)c3=O)cc12 [Compound 431, 2,4(1H,3H)-Pyrimidinedione, 1-methyl-6-(trifluoromethyl)-3-(3-valeryl-1,2-benzisothiazol-5-yl)-] | 9.0 | 9.0 | 9.0 | 9.0 | 0.0 | 4.0 | 9.0 | 9.0 | 0.0 | 4.0 | 3.0 | 7.0 |
| CC(C)Oc1cccc(-c2nsc3ccc(-n4c(=O)cc(C(F)(F)F)n(C)c4=O)cc23)c1 [Compound 328, 2,4(1H,3H)-Pyrimidinedione, 3-[3-(m-isopropoxyphenyl)-1,2-benzisothiazol-5-yl]-1-methyl-6-(trifluoromethyl)-] | 9.0 | 9.0 | 9.0 | 9.0 | 6.0 | 6.0 | 9.0 | 9.0 | 2.0 | 6.0 | 4.0 | 4.0 |
| COc1cc2c(cc1-c1nsc3ccc(-n4c(=O)cc(C(F)(F)F)n(C)c4=O)cc13)CCC2 [Compound 380, 2,4(1H,3H)-Pyrimidinedione, 3-[3-(6-methoxy-5-indanyl)-1,2-benzisothiazol-5-yl]-1-methyl-6-(trifluoromethyl)-] | 9.0 | 9.0 | 9.0 | 9.0 | 2.0 | 8.0 | 9.0 | 9.0 | 2.0 | 8.0 | 7.0 | 7.0 |
| CON(C)C(=O)COc1ccccc1-c1nsc2ccc(-n3c(=O)cc(C(F)(F)F)n(C)c3=O)cc12 [Compound 354, Acetamide,2-{o-{5-[3,6-dihydro-3-methyl-2,6-dioxo-4-(trifluoromethyl)-1(2H)-pyrimidinyl]-1,2-benzisothiazol-3-yl}phenoxy}-N-methoxy-N-methyl-] | 9.0 |  | 9.0 |  | 9.0 |  | 9.0 |  | 9.0 |  | 6.0 |  |
